Structures can show the parent of a compound that is named as a salt.
Columns and labels:
[1] = test system: P. aeruginosa PAO1 variant, which constitutively expresses AmpC; assay: Combinatorial effect: MIC of piperacillin (PIPC) by agar plate dilution (CLSI) with test compound; assay type: cell-based; settings: for MIC: Pseudomonas aeruginosa, PAO1; for effect of the compound in combination with an antibiotic: result in words
Experimental: The biological activity of the above-mentioned compounds of formulae (H) and (s) can be measured as follows. Specifically, an enzyme inhibitory activity (IC50 value) against AmpC enzyme which is a class C β-lactamase was determined using nitrocephin as a substrate to check whether or not the compounds had the inhibitory activity and compare the activities of them. Further, using constitutive AmpC producing Pseudomonas aeruginosa, a combined antimicrobial activity (MIC) was measured when using Piperacillin (PIPC) as an antibiotic and the compound of formula (H) or (s) in combination to check whether or not the antimicrobial activity of PIPC could be restored.
The combinatorial effect of the test compound with a β-lactam agent against bacteria was evaluated using AmpC constitutive expression strain selected from P. aeruginosa PAO1 through agent exposure. Using piperacillin (PIPC, Sigma-Aldrich) as a β-lactam agent, measurement was conducted by agar plate dilution process in which minimal inhibitory concentration (MIC) of PIPC is based on Clinical and Laboratory Standards Institute (CLSI process). That is, an agara plate containing 4 µg/mL (final concentration) of test compound and PIPC at each concentration in Mueller-Hinton agar (Becton, Dickinson and Company) was made, and bacteria cultured overnight in cation-adjusted Muller-Hinton broth (Becton, Dickinson and Company) were adjusted in the same medium so as to have 10^4 CFU/spot and inoculated on a plate containing an agent. This plate containing an agent was cultured overnight at 35 °C, and the minimum agent concentration in which no growth of bacteria is observed was determined to be MIC.

[2] = target: T1, AmpC β-lactamase (Pseudomonas aeruginosa, UniProt P24735); assay type: biochemical; settings: result in words
T1 construct: a DNA for encoding an AmpC β-lactamase domain excluding a signal peptide was amplified with PCR; made in house; host or cells: E. coli BL21
T1 sequence (P24735 27-397): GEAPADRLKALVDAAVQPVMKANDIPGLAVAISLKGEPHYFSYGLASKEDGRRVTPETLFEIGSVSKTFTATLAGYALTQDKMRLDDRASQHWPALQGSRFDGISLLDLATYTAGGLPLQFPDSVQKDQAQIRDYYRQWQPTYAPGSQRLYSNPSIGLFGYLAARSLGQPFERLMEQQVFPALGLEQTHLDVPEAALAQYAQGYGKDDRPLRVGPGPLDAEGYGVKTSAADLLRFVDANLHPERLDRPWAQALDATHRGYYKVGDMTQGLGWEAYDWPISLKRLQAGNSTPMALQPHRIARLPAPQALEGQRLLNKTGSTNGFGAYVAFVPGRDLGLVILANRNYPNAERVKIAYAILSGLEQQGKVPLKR

Row | Structure (SMILES) | MIC [1] | effect of the compound in combination with an antibiotic [1] | β-lactamase enzyme inhibitory activity [2]
1 | NC(=O)C1CCC2CN1C(=O)N2OS(=O)(=O)O [Example 23, (2S,5R)-1,6-Diazabicyclo[3.2.1]octane-2-carboxamide, 7-oxo-6-(sulfoxy)-monosodium salt] | 4 µg/mL | exhibited the activities | exhibited the activities
2 | NC(=O)[C@H]1CC[C@H]2CN1C(=O)N2OS(=O)(=O)O [Example 24, (2R,5S)-1,6-Diazabicyclo[3.2.1]octane-2-carboxamide, 7-oxo-6-(sulfoxy)-monosodium salt] | 64 µg/mL | exhibited no activity | exhibited no activity
3 | C[C@]1(Cn2ccnn2)[C@H](C(=O)O)N2C(=O)C[C@H]2S1(=O)=O [TAZ, Tazobactam, reference compound] | 64 µg/mL | – | –

— patent EP2657234B1, “OPTICALLY-ACTIVE DIAZABICYCLOOCTANE DERIVATIVE AND METHOD FOR MANUFACTURING SAME” (Meiji Seika Pharma Co., Ltd., priority 2010, dated 2012)
